The text below walks through data of patent US20250197355A1, “TEAD Targeting Compounds and Methods Thereof” (Agency for Science, Technology and Research, priority 2022, published 2025).

Holding throughout (assay type): cell-based
Assay [1] in a line: Colony forming assay for compound 2 and 38 (treatment and 5 days recovery). Conditions: treatment and recovery (5 days).
Assay [2] relates to TEAD transcriptional target genes. Description: RT-PCR profiling of YAP-TEAD transcriptional target genes in NCI-H226 cells. As to conditions: 24 hrs. As to the method:
(§1) Relative quantification of immunoblot signals were quantified with IMAGE J software. Actively growing cells were added with indicated concentrations of CPD10 and CPD13 and cells were collected after 24 hrs. RNA was extracted and cDNA was synthesized. Indicated primer pairs were used for RT-PCR. Relative gene expression was determined by using GAPDH amplification.

For the next assay, the target named is T1, GFP-TEAD4 (Homo sapiens, UniProt Q15561).
T1 construct: expressed in transfected cells
Description: TEAD4 localization imaging in U20S cells stably expressing GFP-TEAD4. Conditions: 10 μM, 18 hrs. As to the method: Methods: U20S cells stably expressing GFP-TEAD4 were seeded at 50,000 cell densities onto glass cover slips in six well plates. Next day, cells were either DMSO treated or treated with indicated compounds at 10 μM concentrations. After 18 hrs of treatment cells were washed and fixed in 4% formaldehyde for 20 minutes. Blocking was done in 3% BSA dissolved in PBST for 1 hour. Cell were incubated with indicated antibodies for overnight in a cold room. Next day, after washing 3× in PBST samples were incubated with respective secondary antibodies for 45 minutes at room temperature. After washing nuclear staining was done with DAPI for 10 minutes. Coverslips were added onto glass slides with the help of mounting medium. After drying, cells were imaged at 63× objective and processed with ZEN x64 blue software.
Result: In DMSO treated control samples we observed very nuclear localized TEAD4 (green) signal, strongly imposed to the DAPI signal. Nuclear and cytoplasmic YAP and TAZ was observed either in DMSO or in compound treated cells.

Assay [3] concerns CTGF and CYR61 transcripts. Description: RT-qPCR of Hippo-dependent gene transcripts in A549. On the procedure:
(§2) MGH-CP1 (positive control) and Cpd 13 were tested on MCF10 and A549.

The subject of assay [4] is CTGF and CYR61 transcripts. The assay can be described thus: RT-qPCR of Hippo-dependent gene transcripts in MCF10. As to the method:
as §2
Background: Quantitative PCR measures a nucleic acid by following its amplification.

Assay [5] has as its system NCI-H226 mesothelioma cells. The assay can be described thus: Colony forming assay in NCI-H226 mesothelioma cells. On the procedure: (§3) In colony forming assay, indicated cells were plated at 5,000 cells density in 2 ml of DMEM medium. TEAD4 depletion was performed by reverse transfection with 20 nM of Dharmacon smart pool NTsiRNA and TEAD4 siRNA in 2.5 ul of lipofectamine mixed with 25% of OPTIMEM. After 18 hrs of transfection, cells were either DMSO treated or treated with indicated compounds at different doses. After 48 hrs of the treatment cells were recovered in a fresh medium for 4 days. At the end of the experiment cells were Glutaraldehyde fixed and stained in crystal violet solution for 2 hrs. After washing, plates were scanned for image processing.
Colony forming assay was essentially performed as described in previous section.

In a further assay the target is T2, YAP-TEAD binding (Homo sapiens, UniProt Q15561).
T2 construct: Endogenous TEAD4 IP; endogenous in cells; host or cells: NCI-H226 mesothelioma cells
Description: Endogenous TEAD4 immunoprecipitation in NCI-H226 mesothelioma cells. Conditions: 24 hrs, indicated concentrations. As to the method:
Evaluation of CPD10 and CPD13 in NCI-H226 mesothelioma cell line: Actively growing cells were either DMSO added or treated with indicated concentrations of CPD10 and CPD13 for 24 hrs. Cells were collected in ice-cold PBS and pellets were lysed in IP Lysis Buffer (25 mM Tris-HCl pH 7.4, 150 mM NaCl, 1 mM EDTA, 1% NP-40 and 5% glycerol and competing amount of protease inhibitor). Samples were lysed by sonication, BCA assay was performed and equal concentration of protein were added with TEAD4 antibody (3 ul). After overnight incubation in cold room, samples were added with anti-rabbit magnetic beads to trap the TEAD and binding complex for 2 hrs. Samples were washed 3 times and bound fraction were collected with the help of magnetic stand. Samples were added with 4×LDS, competing amount of DTT, and boiled for 3 minutes. Whole cell lysate (Input) and IP samples were resolved in 8% SDS-PAGE gel and immunoblotted with indicated antibodies.
as §1

For a further assay, the system named is U20S cells. The assay can be described thus: Colony forming assay in U20S cells depleted of or overexpressing TEAD4. On the procedure:
as §3
In line with proliferation assay we performed colony forming assay in U20S cells either depleted or overexpressing TEAD4. Cells stably expressing GFP and GFP fused TEAD4 were also included in this assay.

In assay [6] the test system is TEADs transcriptional target genes. The assay can be described thus: RT PCR transcriptional profiling of TEADs target genes in A549 cells. On the procedure: Method: A549 cells (at 60% confluency) either mock treated or treated with indicated doses of CPD 10 and CPD13 for 24 hrs. Cells were washed with ice-cold 1×PBS. RNA extraction was performed with Quick-RNA™ miniprep kit (Zymo Research, Cat. No. R1055), strictly according to manufacturer's instructions. Nanodrop quantified 2 μg of RNA samples were used for cDNA synthesis with cDNA Reverse Transcription Kit (Thermo Cat. No. 4368814) strictly according to the manufacturer's instructions. In RT PCR experiment, comparative target gene expression was performed by SYBR™ Green (Thermo Cat. No. 4309155) Master mix. Relative target gene expressions were compared and plotted on Y-Axis.
Result: Relative expression of YAP and TAZ in response to low dose of CPD10 (A) and CPD13 (B) treatment in A549 cells. c-MYC was included as non-transcriptional target of the TEADs. NFKB1 was included as its expression is reciprocal to the YAP/TAZ. Downstream effectors of the TEADs targets (CYR61, AXL, CTGF and ANKRD1) were determined in responses to 2.5, 5 and 10 μM of CPD10 (C) and CPD13 (D).
CPD10 and CPD13 Downregulate the TEADs transcriptional target genes: To determine CPD10 and CPD13 induced relative expression of TEADs target genes, A549 cells were treated with indicated doses for 24 hrs. Transcriptional profiling was performed with respective primer pairs. […] Further we tested the expression of one of the strong non hippo transcription factor, the C-Myc. As expected, c-MYC expression was not affected in response to CPD10 treatment (A). […] C-Myc expression was not affected. […] An Increase of NFKB1 expression is consistent with significant downregulation of YAP expression in response to CPD13 treatment (B). To determine the state of TEADs transcriptional target genes at higher concentrations, A549 cells were treated with indicated doses of compounds and analyzed for the expression of CYR61, AXL, CTGF and ANKRD1.

The subject of assay [7] is hippo signaling target proteins (TEAD4, Pan-TEADs, YAP, TAZ). Description: Immunoblotting of hippo signaling target proteins in A549 whole cell lysates. As to conditions: A549 cells, 24 hrs. On the procedure: Method: A549 cells (at 60% confluency) either mock treated or treated with indicated doses of CPD10 and CPD13 for 24 hrs. Cells were washed with ice-cold 1×PBS and lysed in protein lysis buffer. Whole cell lysates were quantified by Pierce™ BCA Protein assay kit (Catalog number: 23225) and denatured in 4×LDS buffer (Thermo catalog number: NP0007) added with competing amount of DTT followed by boiling for 3 minutes. Samples were resolved in 8% of SDS-PAGE, transferred onto nitrocellulose membrane and immunoblotting was performed with indicated antibodies.
Result: To determine the CPD10 and CPD13 mediated expression of hippo signaling target proteins in A549 cells, whole cell lysates from mock treated and compounds treated cells were immunoblotted to determine the level of TEAD4, Pan-TEADs, YAP, TAZ proteins. […] Similar to CPD10, CPD13 downregulate YAP expression at 10 Um (B). To determine the level of other transcriptional targets, we tested the p53 protein in same sets of protein samples. […] GAPDH was used as loading control.

T1 sequence (Q15561 whole entry): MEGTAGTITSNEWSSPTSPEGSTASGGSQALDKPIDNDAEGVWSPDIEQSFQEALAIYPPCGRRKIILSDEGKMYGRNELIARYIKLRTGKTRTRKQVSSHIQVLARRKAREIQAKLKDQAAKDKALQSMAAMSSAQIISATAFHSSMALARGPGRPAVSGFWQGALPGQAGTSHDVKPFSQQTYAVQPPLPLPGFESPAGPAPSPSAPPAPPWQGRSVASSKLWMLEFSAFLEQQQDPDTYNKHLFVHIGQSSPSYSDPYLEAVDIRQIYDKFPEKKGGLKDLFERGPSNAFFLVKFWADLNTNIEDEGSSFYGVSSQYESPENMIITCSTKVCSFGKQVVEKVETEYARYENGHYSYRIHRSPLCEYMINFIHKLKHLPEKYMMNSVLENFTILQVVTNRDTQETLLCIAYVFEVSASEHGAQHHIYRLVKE
T2 sequence (Q15561 whole entry): as above

`C=CS(=O)(=O)CCC(=O)Nc1cc(-c2ccccc2)cnc1C` [CPD2]: the “TEAD dependence of induced cell sensitivity (colony forming assay)” value in assay [1] is on record as “not TEAD dependent”.
With `C=CS(=O)(=O)CCC(=O)Nc1nc(C2CCCCC2)c(C)s1` [CPD13], the “TEAD transcriptional target genes expression (RT-PCR)” value in assay [2] is listed as “repression”. Besides, at GFP-TEAD4, the “cytoplasmic localization of the TEAD4 protein” value is given as “induction of cytoplasmic localization” and the “nuclear TEAD4 presence” value is “didn't diminish”. The “CTGF and CYR61 transcripts (RT-qPCR)” value in assay [3] is listed as “dose dependent decrease”. In addition, in [4], the “CTGF and CYR61 transcripts (RT-qPCR)” value is listed as “dose dependent decrease”. Moreover, the colony forming sensitivity result in assay [5] is “strongly sensitizes”. The “YAP-TEAD binding (TEAD4 IP, immunoblot)” value on YAP-TEAD binding was “disrupted to a great extent”. Besides, the colony forming sensitivity entry in the assay on U20S cells (TEAD4 depleted cells, unlike control siRNA treated cells) is reported as “less sensitive”. Also, in the assay on U20S cells (U20S cells, control siRNA vs TEAD4 siRNA), the “TEAD4 dependence of cellular sensitivity (siRNA depletion, colony forming)” value is “TEAD4 dependent”. In addition, in assay [6] (24 hrs, 2.5, 5 and 10 μM), the “ANKRD1 relative expression (RT PCR)” value is “further downregulated in a dose dependent manner”, the “AXL relative expression (RT PCR)” value is given as “further downregulated in a dose dependent manner”, the “CTGF relative expression (RT PCR)” value is “further downregulated in a dose dependent manner” and the “CYR61 relative expression (RT PCR)” value is listed as “further downregulated in a dose dependent manner”. In addition, in [6] (24 hrs, low dose), the “NFKB1 relative expression (RT PCR)” value is given as “Increase” and the “c-MYC relative expression (RT PCR)” value is on record as “not affected”. Also, the “YAP/TAZ relative expression (RT PCR)” value in assay [6] (24 hrs, low dose (2.5 μM of CPD10)) is reported as “significant reduction”. Also, the “YAP expression (immunoblot)” value in assay [7] (10 Um) is “downregulate”. The “wild type p53 expression (immunoblot)” value in assay [7] (same protein samples) is reported as “didn't resulted in change”.
With `C=CS(=O)(=O)CCC(=O)Nc1cnn(-c2ccccc2)n1` [CPD38], the “TEAD dependence of induced cell sensitivity (colony forming assay)” value in assay [1] is given as “not TEAD dependent”.
